The values below come from paper PMC6933707, “Palmitoylethanolamide counteracts substance P-induced mast cell activation in vitro by stimulating diacylglycerol lipase activity” (Journal of Neuroinflammation, 2019).

Assay [1] has as its system RBL-2H3 cells. The assay is described as follows: β-Hexosaminidase release assay. In kind it is cell-based, rat. To be noted: 15 min. As to the method:
(§1) RBL-2H3 cells were plated into 24-well culture dishes at a cell density of 2 × 10^5 cells per well, or into 6-well culture dishes at a cell density of 9 × 10^5 cells per well, for 1 day at 37 °C in 5% CO2 atmosphere. After 1 day, RBL-2H3 cells were stimulated with SP (10 μM) or vehicle (water) and incubated for 15 min at 37 °C in 5% CO2 atmosphere.
SP-stimulated RBL-2H3 cells (2 × 10^5 cells/well) were treated with PEA (0.1, 0.5, 1, and 10 μM) or vehicle (methanol, max 0.1%) for 15 min at 37 °C in 5% CO2 atmosphere. After 15 min, the supernatants (15 μl) were transferred to 96-well plates and incubated with 60 μl of substrate (1 mM p-nitrophenyl-N-acetyl-β-D-glucosaminide in citrate 0.05 M, pH 4.5) for 1 h at 37 °C. To determine the total amount of released β-hexosaminidase, the cells were lysed with 0.1% Triton X-100 and incubated with substrate using the same procedure as for the determination of the activity in the supernatants. The reaction was stopped by adding 150 μl of 0.1 M sodium bicarbonate buffer (pH 10.0), and the reaction product was monitored by measuring the optical density (OD) at 405 nm by using a reader GENios Pro (Tecan). The results were expressed as % of the total β-hexosaminidase content of the cells determined by cell lysis with 0.1% Triton X-100, and calculated by using the following formula: % degranulation = [ODsupernatant/(ODsupernatant + ODtriton x−100)] × 100.

Assay [2] has as its system RBL-2H3 cells. The assay is described as follows: Histamine release assay (ELISA). It is filed as cell-based, rat. As to the method: as §1
SP-stimulated RBL-2H3 cells (2 × 10^5 cells/well) were treated with PEA (10 μM) or vehicle (methanol) for 15 min at 37 °C in 5% CO2 atmosphere. SP-stimulated RBL-2H3 cells were also treated with a CB2 antagonist, AM630 (0.1 μM), in the presence and absence of PEA (10 μM), or JWH133 (0.1 μM) (a CB2 synthetic agonist), and incubated for the indicated time. SP-stimulated RBL-2H3 cells were also treated with 2-AG (0.1 and 1 μM), or co-treated with PEA (0.1 μM) and 2-AG (0.1 μM), and incubated for the indicated time. SP-stimulated RBL-2H3 cells were also co-treated with PEA (10 μM) and OMDM188 (10 μM) (a DAGL inhibitor), and incubated for the indicated time. After 15 min, the supernatants were collected and the amounts of secreted histamine were measured by using a histamine ELISA kit according to the manufacturer’s instructions (Abnova) and by using a reader GENios Pro (Tecan). Data were expressed as nanograms per milliliter of histamine.

A further assay deals with T1, human recombinant DAGL-α (Homo sapiens, UniProt Q9Y4D2).
T1 construct: expressed in transfected cells; host or cells: COS-7
T1 sequence (Q9Y4D2 1-1042): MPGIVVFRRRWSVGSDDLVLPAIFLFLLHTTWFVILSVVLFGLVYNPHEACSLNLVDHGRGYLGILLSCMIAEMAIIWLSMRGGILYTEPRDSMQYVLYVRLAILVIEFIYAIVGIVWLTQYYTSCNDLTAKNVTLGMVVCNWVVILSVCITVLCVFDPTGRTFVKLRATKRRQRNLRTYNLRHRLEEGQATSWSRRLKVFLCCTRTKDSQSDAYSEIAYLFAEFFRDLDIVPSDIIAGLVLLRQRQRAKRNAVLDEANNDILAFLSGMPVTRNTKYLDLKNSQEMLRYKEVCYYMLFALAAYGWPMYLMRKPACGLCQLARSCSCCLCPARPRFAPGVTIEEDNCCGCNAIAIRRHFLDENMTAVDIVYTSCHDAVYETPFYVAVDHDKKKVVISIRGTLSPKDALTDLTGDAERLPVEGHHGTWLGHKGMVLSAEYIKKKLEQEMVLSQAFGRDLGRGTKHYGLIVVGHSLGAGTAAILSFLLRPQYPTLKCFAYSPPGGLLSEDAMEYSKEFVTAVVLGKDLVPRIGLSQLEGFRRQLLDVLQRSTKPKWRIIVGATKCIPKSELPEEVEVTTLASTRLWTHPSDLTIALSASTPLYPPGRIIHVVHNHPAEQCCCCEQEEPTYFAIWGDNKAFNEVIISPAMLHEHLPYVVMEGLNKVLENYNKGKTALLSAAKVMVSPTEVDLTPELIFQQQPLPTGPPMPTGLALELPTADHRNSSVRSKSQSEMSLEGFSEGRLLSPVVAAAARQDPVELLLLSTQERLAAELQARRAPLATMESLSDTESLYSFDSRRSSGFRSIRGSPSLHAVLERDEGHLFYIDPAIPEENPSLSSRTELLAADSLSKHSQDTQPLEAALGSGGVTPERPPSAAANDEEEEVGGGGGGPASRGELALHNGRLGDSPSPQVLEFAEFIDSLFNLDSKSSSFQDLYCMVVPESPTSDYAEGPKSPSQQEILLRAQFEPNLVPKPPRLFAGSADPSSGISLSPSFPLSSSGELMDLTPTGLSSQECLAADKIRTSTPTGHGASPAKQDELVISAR
The assay is described as follows: DAGL-α enzyme activity assay (COS-7 membranes; radiolabelled substrate or 2-AG by LC-MS). It is filed as biochemical. On the procedure: DAGL-α enzyme activity was assessed as previously reported by using membrane preparations (50 μg of protein) obtained from COS-7 cells overexpressing the human recombinant DAGL-α enzyme, and 1-[^14C]oleoyl-2-arachidonoylglycerol (1.0 mCi/mmol, 25 μM, synthesized as previously reported, as substrate in the presence of vehicle or increasing concentrations of PEA (0.1–25 μM) in Tris-HCl 50 mM pH 7.4. After the incubation (20 min at 37 °C), lipids were extracted with two volumes of CHCl3/CH3OH (2:1, v/v). The organic extracts, lyophilized under vacuum, were used to quantify the levels of 2-AG by LC-APCI-MS (as described above), or purified by using TLC on silica on polypropylene plates eluted in CHCl3/CH3OH/NH4OH (85:15:0.1%, v/v) as the eluting solvent. Bands corresponding to [^14C]-oleic acid were cut and their radioactivity was measured by using Liquid Scintillation Analyzer (TRI-carb 2100TR). Data were expressed as % of DAGL-α stimulation. To quantify the levels of 2-AG by LC-APCI-MS a non-radiolabeled 1-oleoyl-2-arachidonoylglycerol substrate was used.

Each structure is given as a SMILES string.

In the case of `CCCCCCCCCCCCCCCC(=O)NCCO` [PEA, Palmitoylethanolamide], the β-hexosaminidase release result in the assay with RBL-2H3 cells [1] (SP (10 μM)-stimulated cells, PEA 0.1, 0.5, 1 and 10 μM, concentration-dependent, vs SP + vehicle) is “strongly reduced”; with RBL-2H3 cells [1] (substance alone 10 μM, vs vehicle-treated cells) it was “No effect”. The histamine release entry in the assay with RBL-2H3 cells [2] (SP (10 μM)-stimulated cells, compound 0.1 μM, 15 min, vs SP + vehicle) is “comparable”; in the assay on RBL-2H3 cells [2] (SP (10 μM)-stimulated cells, compound 10 μM, 15 min, vs SP + vehicle), “inhibited the release of histamine”; in the assay on RBL-2H3 cells [2] (SP-stimulated cells co-treated with PEA 0.1 μM and 2-AG 0.1 μM, 15 min), “able to reduce”; in the assay with RBL-2H3 cells [2] (SP-stimulated cells co-treated with PEA 10 μM and AM630 0.1 μM, vs SP + vehicle or SP + AM630) it was “comparable”; with RBL-2H3 cells [2] (substance alone 10 μM, 15 min, vs vehicle-treated cells) it was “No effect”. The “elevation of levels of 2-AG produced by DAGL-α (LC-MS)” value at human recombinant DAGL-α (PEA 25 μM + substrate, compared to membrane preparations incubated alone (no substrate, no PEA)) worked out at 5.6 fold; at human recombinant DAGL-α (PEA 25 μM, compared to membrane preparations incubated with the substrate 1-oleoyl-2-arachidonoylglycerol and without PEA), 1.4 fold. Also, the EC50 (as a rule, the concentration that produces a half-maximal response) on human recombinant DAGL-α (membranes of COS-7 cells over-expressing DAGL-α, 20 min 37 °C, read-out: EC50, stimulation of DAGL-α activity) worked out at 17.3 ± 2.35 µM.
